According to ChEMBL document CHEMBL3400082, “Synthesis of 6-aryl-substituted sulfocoumarins and investigation of their carbonic anhydrase inhibitory action” (Bioorg Med Chem, 2015):

biological target: Carbonic anhydrase 1 (Homo sapiens, UniProt P00915); experiment: Inhibition of human cytosolic carbonic anhydrase 1 by stopped-flow CO2 hydrase assay
Sequence (P00915 whole entry): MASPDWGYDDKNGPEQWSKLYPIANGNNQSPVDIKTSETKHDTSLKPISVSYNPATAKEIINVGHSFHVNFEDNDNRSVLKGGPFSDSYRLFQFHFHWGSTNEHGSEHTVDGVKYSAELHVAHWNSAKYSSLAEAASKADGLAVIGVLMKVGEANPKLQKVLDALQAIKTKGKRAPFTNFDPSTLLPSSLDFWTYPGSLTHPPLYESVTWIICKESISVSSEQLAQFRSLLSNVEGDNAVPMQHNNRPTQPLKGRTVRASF

Structure (SMILES)	Ki [µM]
COC(=O)c1cccc(-c2ccc3c(c2)C=CS(=O)(=O)O3)c1	> 10
CC(C)Oc1ccc(-c2ccc3c(c2)C=CS(=O)(=O)O3)cc1	> 10
O=S1(=O)C=Cc2cc(-c3ccc(Cl)c(Cl)c3)ccc2O1	> 10
O=S1(=O)C=Cc2cc(-c3ccc(OC(F)(F)F)cc3)ccc2O1	> 10
Cc1ccc(-c2ccc3c(c2)C=CS(=O)(=O)O3)cc1	> 10
CC(C)(C)c1ccc(-c2ccc3c(c2)C=CS(=O)(=O)O3)cc1	> 10
Cc1ccccc1-c1ccc2c(c1)C=CS(=O)(=O)O2	> 10
O=S1(=O)C=Cc2cc(-c3ccc(F)cc3)ccc2O1	> 10

The remaining lines, values ahead:

Ki [µM]	Structure (SMILES)
> 10	O=S1(=O)C=Cc2cc(-c3ccccc3)ccc2O1
> 10	O=S1(=O)C=Cc2cc(-c3ccc(C(F)(F)F)cc3)ccc2O1
> 10	O=S1(=O)C=Cc2cc(-c3cccc(C(F)(F)F)c3)ccc2O1
> 10	O=S1(=O)C=Cc2cc(-c3cccc(F)c3)ccc2O1
> 10	COc1ccc(-c2ccc3c(c2)C=CS(=O)(=O)O3)cc1

biological target: Carbonic anhydrase 2 (Homo sapiens, UniProt P00918); experiment: Inhibition of human cytosolic carbonic anhydrase 2 by stopped-flow CO2 hydrase assay

Structure (SMILES)	Ki [µM]
COC(=O)c1cccc(-c2ccc3c(c2)C=CS(=O)(=O)O3)c1	> 10
CC(C)Oc1ccc(-c2ccc3c(c2)C=CS(=O)(=O)O3)cc1	> 10
O=S1(=O)C=Cc2cc(-c3ccc(Cl)c(Cl)c3)ccc2O1	> 10
O=S1(=O)C=Cc2cc(-c3ccc(OC(F)(F)F)cc3)ccc2O1	> 10
Cc1ccc(-c2ccc3c(c2)C=CS(=O)(=O)O3)cc1	> 10
CC(C)(C)c1ccc(-c2ccc3c(c2)C=CS(=O)(=O)O3)cc1	> 10
Cc1ccccc1-c1ccc2c(c1)C=CS(=O)(=O)O2	> 10
O=S1(=O)C=Cc2cc(-c3ccc(F)cc3)ccc2O1	> 10

More lines, now with the values ahead:

Ki [µM]	Structure (SMILES)
> 10	O=S1(=O)C=Cc2cc(-c3ccccc3)ccc2O1
> 10	O=S1(=O)C=Cc2cc(-c3ccc(C(F)(F)F)cc3)ccc2O1
> 10	O=S1(=O)C=Cc2cc(-c3cccc(C(F)(F)F)c3)ccc2O1
> 10	O=S1(=O)C=Cc2cc(-c3cccc(F)c3)ccc2O1
> 10	COc1ccc(-c2ccc3c(c2)C=CS(=O)(=O)O3)cc1

biological target: Carbonic anhydrase 9 (Homo sapiens, UniProt Q16790); experiment: Inhibition of human tumor-associated carbonic anhydrase 9 by stopped-flow CO2 hydrase assay

Structure (SMILES)	Ki [µM]
COC(=O)c1cccc(-c2ccc3c(c2)C=CS(=O)(=O)O3)c1	0.009
CC(C)Oc1ccc(-c2ccc3c(c2)C=CS(=O)(=O)O3)cc1	0.0098
O=S1(=O)C=Cc2cc(-c3ccc(Cl)c(Cl)c3)ccc2O1	0.0094
O=S1(=O)C=Cc2cc(-c3ccc(OC(F)(F)F)cc3)ccc2O1	0.0762
Cc1ccc(-c2ccc3c(c2)C=CS(=O)(=O)O3)cc1	0.0774
CC(C)(C)c1ccc(-c2ccc3c(c2)C=CS(=O)(=O)O3)cc1	0.0091
Cc1ccccc1-c1ccc2c(c1)C=CS(=O)(=O)O2	0.0708
O=S1(=O)C=Cc2cc(-c3ccc(F)cc3)ccc2O1	0.0953

The remaining lines, values ahead:

Ki [µM]	Structure (SMILES)
0.0599	O=S1(=O)C=Cc2cc(-c3ccccc3)ccc2O1
0.0297	O=S1(=O)C=Cc2cc(-c3ccc(C(F)(F)F)cc3)ccc2O1
0.0098	O=S1(=O)C=Cc2cc(-c3cccc(C(F)(F)F)c3)ccc2O1
0.0103	O=S1(=O)C=Cc2cc(-c3cccc(F)c3)ccc2O1
0.0709	COc1ccc(-c2ccc3c(c2)C=CS(=O)(=O)O3)cc1
